Where a name gives a salt, the structure may show the parent alone.
System: Pseudomonas aeruginosa
Assay: In vivo immunopotentiation against challenge with lethal doses of Pseudomonas aeruginosa (cyclophosphamide-immunocompromised mouse model)
Design: species or system random outbred albino CF1 female mice
Settings: for Relative No. LD50's (Protective Index: number of LD50's of protection of treated animals over the LD50 of CY controls): CY 250 mg/kg i.p. 4 days before P. aeruginosa challenge, test compound injected once, 2 hours after CY
Protocol: An immunocompromised mouse model, established by intraperitoneal treatment of random outbred albino CF1 female mice (ca. 25 g) with 250 mg/kg body weight of cyclophosphamide (CY) 4 days prior to bacterial challenge with Pseudomonas aeruginosa, was used as the assay system. In this model, test compounds were injected only once (2 hours) after CY treatment. After bacterial challenge, LD50 's (50% lethal doses) were determined. Increased LD50 's in treated mice over controls indicated a return to normality. The LD50 for untreated or vehicle-treated mice was routinely 10^6 -10^7 colony forming units (CFU) of P. aeruginosa organisms. After CY treatment, the LD50 was reduced to 10^1 to 10^2 CFU's. The protection afforded by test compound (Protective Index) was determined by calculating the number of LD50 's of protection of treated animals over the LD50 of CY controls.

For `CC(C)(C)C1CCC(NCc2ccc3c(CNC4CCC(C(C)(C)C)CC4)c(O)ccc3c2O)CC1` (mixture of isomers) [Example 3, 1,6-Dihydroxy-2,5-bis-(4-tert-butylcyclohexylaminomethyl)-naphthalene dihydrochloride (mixture of isomers)], the “Relative No. LD50's (Protective Index: number of LD50's of protection of treated animals over the LD50 of CY controls)” value was 2128.
For `CC1CCCCC1NCc1ccc2c(CNC3CCCCC3C)c(O)ccc2c1O` (mixture of isomers) [Example 5, 1,6-Dihydroxy-2,5-bis-(2-methylcyclohexylaminomethyl)-naphthalene dihydrochloride (mixture of isomers)], the “Relative No. LD50's (Protective Index: number of LD50's of protection of treated animals over the LD50 of CY controls)” value was 133.
In the case of `CC1CCCC(NCc2ccc3c(CNC4CCCC(C)C4)c(O)ccc3c2O)C1` (mixture of isomers) [Example 6, 1,6-Dihydroxy-2,5-bis-(3-methylcyclohexylaminomethyl)-naphthalene dihydrochloride (mixture of isomers)], the “Relative No. LD50's (Protective Index: number of LD50's of protection of treated animals over the LD50 of CY controls)” value was 151.
`CC(C)(C)C1CCC(NCc2ccc3c(CNC4CCC(C(C)(C)C)CC4)c(O)ccc3c2O)CC1.Cl.Cl` (single isomer, unassigned) [Example 4, 1,6-Dihydroxy-2,5-bis-(4-tert-butylcyclohexylaminomethyl)-naphthalene dihydrochloride (single isomer)] was tested, and the “Relative No. LD50's (Protective Index: number of LD50's of protection of treated animals over the LD50 of CY controls)” value was 1000 and the “LD50 raised over untreated controls” value (cyclophosphamide-immune compromised mouse, P. aeruginosa lethal challenge) was 1000 fold.
For `Cl.Cl.Oc1ccc2c(O)c(CNCC3CCCCC3)ccc2c1CNCC1CCCCC1` [Example 2, 1,6-Dihydroxy-2,5-bis-(cyclohexylmethylaminomethyl)-naphthalene dihydrochloride], the “Relative No. LD50's (Protective Index: number of LD50's of protection of treated animals over the LD50 of CY controls)” value was 320.
In the case of `C[C@H]1CC[C@H](NCc2ccc3c(CN[C@H]4CC[C@H](C)CC4)c(O)ccc3c2O)CC1.Cl.Cl` [Example 7, 1,6-Dihydroxy-2,5-bis-(trans-4-methylcyclohexylaminomethyl)-naphthalene dihydrochloride], the “Relative No. LD50's (Protective Index: number of LD50's of protection of treated animals over the LD50 of CY controls)” value was 1000.
